The test system of this assay is CEM cells HIV-1 protection, formazan growth assay. The experiment in a line: NCI AIDS Antiviral Assay. The settings on record: for pIC50: measured here: growth of uninfected CEM cells. The method in brief: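 CEM (human) cells, HIV-1 infected vs uninfected, 5-point dosing, formazan growth read-out. Retest threshold 50% protection.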

pEC50, pIC50: −log10 of the molar value. The source made the active and inactive calls.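 The calls were made as follows: active = compounds giving half or more protection of infected cells from virus-caused growth loss, again on retest; inactive = the rest.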 Where a SMILES comes first, the peptide text is derived from it. [ ]: non-standard residue; d: D form. pGlu = O=C1CC[CH](C(=O)O)N1; Thz = O=C(O)[CH]1CSCN1

Regarding `CCN1CCC(O)(c2ccc([N+](=O)[O-])cc2)C(C(=O)c2ccc([N+](=O)[O-])cc2)C1` (stereo not given), the pEC50 (usually the negative decadic logarithm of the EC50, by convention in mol/L) is under 3.70 and the pIC50 (as a rule, −log10 of the IC50, conventionally taken in molar units) was 4.48.

As to `CCc1nnc(CC)n1N1C(=O)CCC1=O`, the pEC50 was under 3.70 and the negative-log IC50 (pIC50) was under 3.70.

Take `N#CCCN(CCC#N)c1ccc(/C=C2\N=C(c3ccccc3)N(NC(=O)c3ccncc3)C2=O)cc1`: the pEC50 is under 3.70 and the pIC50 is 3.72.

`CC(C)(C)c1ccccc1NS(=O)(=O)c1ccccc1`: the outcome was inactive.

`c1ccc2c(c1)ncn2C1CCCCO1` (stereo not given): the pEC50 was under 3.70 and the pIC50 was under 3.70.

For the molecule `CN(C)C(=S)/N=c1\ss/c(=N\S(=O)(=O)c2ccccc2)n1C`, the result was inactive.

Regarding `CNC(=O)OCc1c(COC(=O)NC)c2n(c1C)CS(=O)(=O)C2`, the pEC50 is under 3.70 and the negative logarithm of the IC50 (pIC50) is under 3.70.

As for `CN(C)CC/C=C1\c2ccccc2CN(C)c2ccccc21`, the pEC50 was under 3.70 and the pIC50 is 4.48.

As for `N#C/C(=C\c1ccc(C#N)cc1)c1ccccc1`, the pEC50 is under 4.93 and the pIC50 was under 4.93.

Consider `N#CC(C(=N/NC(N)=S)/C(=N/NC(N)=S)C(C#N)c1ccc(Cl)cc1)c1ccc(Cl)cc1` (stereo not given), for which the pEC50 is under 3.59 and the pIC50 is 3.73.

In the case of `CC(=O)OC1CC2C(C)(C)C(=O)C=C[C@]2(C)C2CCC3(C)C(c4ccoc4)[C@@H](O)[C@H]4O[C@]43[C@]12C` (stereo not given in full), the pEC50 was under 4.24 and the pIC50 is 5.21.

With `c1ccc(C2=NN(c3ccccc3)CC2)cc1`, the outcome was inactive.

For `COc1ccc(/C=C/C(=O)C(C)C)cc1`, the pEC50 was under 3.70 and the negative-log IC50 (pIC50) is 4.47.

For `Cc1cc2c(C(C)C)c(O)c(O)c(C=NCCc3ccccc3)c2c(O)c1-c1c(C)cc2c(C(C)C)c(O)c(O)c(C=NCCc3ccccc3)c2c1O`, the pEC50 was under 3.70 and the pIC50 is 5.06.

Turning to `CCOP(=O)(OCC)OC(C#N)c1ccc(-c2ccccc2)cc1` (stereo not given), the pEC50 is under 4.05 and the pIC50 is 4.34.

Consider `CC(O)c1nc(C#N)c(N)o1` (stereo not given), for which the pEC50 is 5.48 and the negative-log IC50 (pIC50) was under 3.70.

Take `C/C(=N\NC(=S)NC1CCCC1)c1ccccn1`: the pEC50 was under 5.70 and the pIC50 was 7.82.

As for `O=C1CCC(C(=O)N2CSCC2C(=O)O)N1` (stereo not given) ([pGlu]-[Thz]-OH; configuration not given here), the pEC50 was under 3.70 and the pIC50 was under 3.70.

As to `Clc1ccc(C(OCn2ccnc2)c2nc3ccccc3[nH]2)c(Cl)c1` (stereo not given), the pEC50 was under 3.70 and the pIC50 was 3.97.

Consider `CCCCc1c(N(C)C)c(OC(C)=O)c(-c2cn(C)c3ccccc23)oc1=O`, for which the pEC50 was under 3.70 and the pIC50 was 4.50.

Take `CC1=CO[C@@H]2O[C@@]3(C)CC[C@H]4[C@H](C)CC[C@@H]1[C@@]24OO3`: the pEC50 was under 3.70 and the negative logarithm of the IC50 (pIC50) was 3.75.

Take `COc1ccc(C2OC(N)=C(C#N)C3=C2CCCC3C)cc1OC` (stereo not given): the pEC50 was under 3.70 and the negative logarithm of the IC50 (pIC50) is under 3.70.

For `COC12C[C@H]3CCC([C@H](C)c4ccc5c(c41)CC1[C@H]5C[C@@H](O)C4C[C@@H](O)CC[C@@]41C)N2C3` (stereo not given in full), the pEC50 is under 4.39 and the pIC50 was under 4.39.

For `CC1C2CC=CC(=O)[C@@]2(C)CCC12OCCO2` (stereo not given in full), the result was inactive.

Regarding `CCC12OCC(C)(C)N1OC(=O)N2c1ccccc1` (stereo not given), the pEC50 is under 3.70 and the pIC50 was under 3.70.

With `Nc1c(-c2cccc3ccccc23)c2ccc([N+](=O)[O-])cc2c(=O)n1-c1nc2ccccc2s1`, the pEC50 was under 4.30 and the negative-log IC50 (pIC50) was 6.17.

For `Cc1ncc2c(=O)c3c(oc2n1)c1ccccc1n3Cc1ccccc1`, the pEC50 is under 3.70 and the negative logarithm of the IC50 (pIC50) was under 3.70.

As to `Cc1cc(C)n2nc3c4ccsc4ncc3c2n1`, the pEC50 is under 4.34 and the pIC50 was under 4.34.

`CCCCCCCCCCCCCCCCCCn1[se]c2ccccc2c1=O`: the pEC50 is under 5.49 and the pIC50 is under 5.49.

As to `O=[N+]([O-])c1ccc(N=NN2CCCC2)cc1`, the pEC50 was under 3.70 and the negative-log IC50 (pIC50) is 4.73.

Consider `CN1CCCNCCN(CCc2ccccn2)CCCN(C)CC1`, for which the pEC50 was under 3.88 and the negative-log IC50 (pIC50) was under 3.88.

With `COc1ccccc1N1C(=O)C2C3c4ccccc4C(OC(C)=O)(c4ccccc43)C2C1=O` (stereo not given), the pEC50 is under 3.70 and the pIC50 is under 3.70.

Regarding `Cc1ccnc(NC(=O)Nc2cc(Cl)ccc2Cl)c1`, the pEC50 was under 3.70 and the pIC50 was under 3.70.

For `O=S1(=O)c2ccc(cc2)N=CC=Nc2ccc1cc2`, the pEC50 is under 4.48 and the negative-log IC50 (pIC50) was under 4.48.

For the molecule `CC1CCC2CC1NC(=O)CCOCCC(=O)NC2(C)C` (stereo not given), the pEC50 was under 4.34 and the pIC50 was under 4.34.

In the case of `COc1cc(NCCCCCN=C(N)NC#N)c2ncccc2c1`, the pEC50 was under 4.10 and the negative logarithm of the IC50 (pIC50) was 4.30.

Consider `CC(=O)Nc1ccc2nc(-c3ccccn3)c(-c3ccccn3)nc2c1`, for which the pEC50 was 4.56 and the negative-log IC50 (pIC50) was under 3.70.

Regarding `O=C1c2ccccc2C2(c3ccc(F)cc3)NCCN12` (stereo not given), the pEC50 was under 3.70 and the pIC50 was 3.73.

With `CCOC(=O)CN1C(=O)S/C(=C2\C(=O)N(C)c3ccccc32)C1=O`, the pEC50 is under 3.70 and the pIC50 was under 3.70.

For `CCOC(=O)c1c(C)c2c(n1C)CCc1cn[nH]c1-2`, the pEC50 is under 3.72 and the pIC50 is 3.90.

Regarding `CC1C=C(Sc2ccccc2)C(=O)O1` (stereo not given), the pEC50 is under 3.33 and the pIC50 was 4.60.

Turning to `O=C1NC(=O)C2C(=O)NC(=O)C1C2c1c(Cl)cccc1Cl` (stereo not given), the pEC50 was under 3.12 and the pIC50 is 3.30.

Turning to `COC1=CC(=O)C(O)=C(C[C@@]2(C)C3CCCC(C)(C)C3=CC[C@@H]2C)C1=O` (stereo not given in full), the pEC50 was under 3.44 and the pIC50 was 4.71.

Take `COc1cccc(-c2[nH]c3cc4c(cc3c(=O)c2C(=O)O)OCO4)c1`: the pEC50 is under 3.70 and the pIC50 is 4.86.

For `COC1/C=C\OC2(C)Oc3c(C)c(O)c4c(O)c(c(/C=N\O)c(O)c4c3C2=O)NC(=O)/C(C)=C\C=C/C(C)C(O)C(C)C(O)C(C)C(OC(C)=O)C1C` (stereo not given), the pEC50 was under 4.11 and the negative-log IC50 (pIC50) was 4.13.

Consider `CC(C(=O)NCCNC(=O)CCC(=O)N(C)O)C(=O)NCCNC(=O)CCC(=O)N(C)O`, for which the pEC50 is under 3.70 and the negative logarithm of the IC50 (pIC50) was 3.82.

Take `CCC(=S)N(C)O`: the pEC50 is under 4.68 and the pIC50 was 6.76.

Take `c1cc(C[S+]2CCCC2)sc1C[S+]1CCCC1`: the result was inactive.

`CC(C)CCC[C@@H](C)C1CCC2[C@@H]3CCC4C[C@@H](NS(C)(=O)=O)CC[C@]4(C)C3CC[C@@]21C` (stereo not given in full): the pEC50 is under 3.70 and the pIC50 was under 3.70.

On to `Cc1oc2ccccc2c(=O)c1CN1CCN(c2ccccn2)CC1`, for which the pEC50 is under 3.67 and the negative logarithm of the IC50 (pIC50) is 3.89.

As to `CCOC(=O)N[C@H]1CCc2cc(OC)c(OC)c(OC)c2-c2ccc(SC)c(=O)cc21`, the pEC50 was under 6.70 and the negative-log IC50 (pIC50) is 8.91.

With `COc1cc2c3c(c1)nnn3C(=O)CCS2`, the pEC50 is under 3.70 and the pIC50 was under 3.70.

Turning to `CCOC(=O)c1c(C)[nH]c(=S)c(C#N)c1-c1cccc2ccccc12`, the pEC50 is under 3.70 and the pIC50 was 4.54.

`C[Si](C)(C)CCCS(=O)(=O)O`: the pEC50 is under 3.70 and the pIC50 is under 3.70.

Consider `C/C(=N\NC(=S)N1CCN(c2ccccn2)CC1)c1nccs1`, for which the pEC50 is under 3.84 and the negative-log IC50 (pIC50) was 6.19.

As for `CCN(CC)C(=S)SS(=O)(=O)c1ccc(NC(C)=O)cc1`, the pEC50 is under 3.70 and the pIC50 was 4.96.

For the molecule `N#CC(C#N)=CSc1ccccc1`, the outcome was inactive.

For `CCCC12C(C(=O)OC)C(=O)C(C(=O)OC)C1(C)C(C(=O)OC)C(=O)C2C(=O)OC` (stereo not given), the pEC50 was under 3.86 and the pIC50 was 4.01.

Turning to `Fc1nc(-c2c3ccccc3c3sc4ccccc4n23)nc(N2CCOCCOCCOCCOCC2)n1`, the pEC50 is under 3.70 and the pIC50 is 4.29.

Turning to `CN(C)CC1CCCC1=O` (stereo not given), the pEC50 is under 3.70, the outcome was inactive and the negative logarithm of the IC50 (pIC50) was 4.55.

`CCc1nnc(CC)n1-n1c(Cc2ccccc2)n[nH]c1=O`: the pEC50 was under 3.70 and the negative logarithm of the IC50 (pIC50) was under 3.70.

On to `COc1ccc(/C=C2\N=C(c3ccccc3)N(N=C3NC(=O)CC(=O)N3)C2=O)cc1`, for which the pEC50 is under 3.70 and the pIC50 was under 3.70.

Turning to `Cc1c(C)c(C)c2c(c1C)C/C2=N/O`, the pEC50 was under 4.00 and the negative logarithm of the IC50 (pIC50) was under 4.00.

Consider `Nc1ccccc1-c1noc(=O)[nH]1`, for which the pEC50 was under 3.70 and the negative logarithm of the IC50 (pIC50) was under 3.70.

For the molecule `O=c1ccc2cc(Cl)ccc2o1`, the pEC50 is under 4.12 and the negative logarithm of the IC50 (pIC50) was under 4.12.

With `C[Si](C)(C)[C@@]1([Se]c2ccccc2)CC[C@@H]1C(=O)c1ccccc1`, the pEC50 is under 4.87 and the pIC50 was under 4.87.

Consider `O=C(NCCCCl)c1c(O)c2ccccc2[nH]c1=O`, for which the pEC50 is under 3.70 and the pIC50 is 4.09.

On to `CCOC(=O)Cc1ccc2c(c1)sc1nc(-c3ccc(OC)cc3)cn12`, for which the pEC50 was under 3.70 and the pIC50 is 4.22.

Take `Cc1cc(C)c(C#N)c(SCC(=O)c2sc3c(C#N)c(C)cc(C)[n+]3c2[O-])n1`: the pEC50 is under 5.18 and the pIC50 was under 5.18.

In the case of `NC(N)=N/N=C\c1c(-c2ccccc2)nc2sccn12`, the pEC50 is under 3.70 and the pIC50 is 4.92.

In the case of `COC(=O)c1c(C)cc(OC(=O)c2c(C)cc(O)c(/C=N\O)c2O)c(C)c1O`, the pEC50 is under 3.82 and the pIC50 was 5.01.

`CC(/C=N\NC(=S)N1CCCCC1)=N/NC(=S)N1CCCCC1`: the pEC50 is under 3.70 and the negative logarithm of the IC50 (pIC50) is 5.75.

Take `Cc1ccc(C)c(NC(=O)CC/C(=N\NC(=O)C(=O)NN)C(C)C(=O)c2ccc(O)cc2)c1` (stereo not given): the outcome was inactive.

These data come from PubChem BioAssay AID179 (DTP/NCI, 2004).
